Calls of active or inactive are those of the source.
Key:
[1] = Luminescence-based cell-based high throughput dose response assay to identify activators of the DAF-12 from the parasite S. stercoralis (ssDAF-12).; type: functional
[2] = target: T1, Oxysterols receptor LXR-beta (Homo sapiens, UniProt P55055); assay: LXR agonists, Gal4 luciferase reporter, dose response, counter-screen for ssDAF-12 agonist project, cell-based, luminescence, HEK293, S. stercoralis campaign (AID 720737); type: functional; settings: read-out: IC50 (the source's name)
T1 sequence (P55055 whole entry): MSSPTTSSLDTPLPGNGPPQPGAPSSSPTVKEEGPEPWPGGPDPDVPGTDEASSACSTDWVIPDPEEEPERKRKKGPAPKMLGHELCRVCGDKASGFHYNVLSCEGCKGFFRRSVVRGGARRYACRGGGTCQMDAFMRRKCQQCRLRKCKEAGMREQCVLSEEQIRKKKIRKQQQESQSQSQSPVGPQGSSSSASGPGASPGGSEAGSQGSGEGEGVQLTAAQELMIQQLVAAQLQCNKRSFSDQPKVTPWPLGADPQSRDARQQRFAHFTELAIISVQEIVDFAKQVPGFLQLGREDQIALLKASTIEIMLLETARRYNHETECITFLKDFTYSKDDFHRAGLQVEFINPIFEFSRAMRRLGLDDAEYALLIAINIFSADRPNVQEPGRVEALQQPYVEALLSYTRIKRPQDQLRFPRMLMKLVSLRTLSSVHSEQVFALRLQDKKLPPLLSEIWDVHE

[3] = target: T1, Oxysterols receptor LXR-beta; type: functional, cell-based
[4] = viability inhibitors of stage V gametocytes – luminescence, dose response (AID 1117278); type: functional, cell-based;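 further: gametocytes exposed to compound for 24 hours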
[5] = viability loss in human Jurkat cells – cell-based, luminescence, cytotoxicity control for P. falciparum gametocyte viability project, dose response (AID 1117277); type: functional;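 further: potency reflects loss of cellular ATP meaning fewer viable cells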
HEK293 [6] = assay: inhibition of NOD1-driven NF-kB reporter – cell-based, luminescence, uHTS, primary screen (AID 1578); type: functional; settings: Homo sapiens
HEK293 [7] = assay: cells; type: functional, cell-based; settings: Homo sapiens
HEK293 [8] = assay: cells; type: functional, cell-based; settings: Homo sapiens; remark: listed apart in the source
HEK293 [9] = assay: NOD2 signaling inhibitors in MDP-stimulated cells, cell-based, uHTS, luminescence (AID 2001); type: functional; settings: Homo sapiens
[10] = viability loss in Vero cells – cytotoxicity control for Vif-APOBEC3G degradation inhibitor project, dose response (AID 1117358); type: functional; settings: Vero
Aminopeptidase N = target: T2, Aminopeptidase N (Plasmodium falciparum FcB1/Columbia, UniProt O96935); assay: malaria alanyl aminopeptidase activity blockers – biochemical, fluorogenic H-Leu-NHMec substrate, 1536-well (AID 1445); parameters: species or system Plasmodium falciparum 3D7, 3D7
T2 sequence (O96935 whole entry): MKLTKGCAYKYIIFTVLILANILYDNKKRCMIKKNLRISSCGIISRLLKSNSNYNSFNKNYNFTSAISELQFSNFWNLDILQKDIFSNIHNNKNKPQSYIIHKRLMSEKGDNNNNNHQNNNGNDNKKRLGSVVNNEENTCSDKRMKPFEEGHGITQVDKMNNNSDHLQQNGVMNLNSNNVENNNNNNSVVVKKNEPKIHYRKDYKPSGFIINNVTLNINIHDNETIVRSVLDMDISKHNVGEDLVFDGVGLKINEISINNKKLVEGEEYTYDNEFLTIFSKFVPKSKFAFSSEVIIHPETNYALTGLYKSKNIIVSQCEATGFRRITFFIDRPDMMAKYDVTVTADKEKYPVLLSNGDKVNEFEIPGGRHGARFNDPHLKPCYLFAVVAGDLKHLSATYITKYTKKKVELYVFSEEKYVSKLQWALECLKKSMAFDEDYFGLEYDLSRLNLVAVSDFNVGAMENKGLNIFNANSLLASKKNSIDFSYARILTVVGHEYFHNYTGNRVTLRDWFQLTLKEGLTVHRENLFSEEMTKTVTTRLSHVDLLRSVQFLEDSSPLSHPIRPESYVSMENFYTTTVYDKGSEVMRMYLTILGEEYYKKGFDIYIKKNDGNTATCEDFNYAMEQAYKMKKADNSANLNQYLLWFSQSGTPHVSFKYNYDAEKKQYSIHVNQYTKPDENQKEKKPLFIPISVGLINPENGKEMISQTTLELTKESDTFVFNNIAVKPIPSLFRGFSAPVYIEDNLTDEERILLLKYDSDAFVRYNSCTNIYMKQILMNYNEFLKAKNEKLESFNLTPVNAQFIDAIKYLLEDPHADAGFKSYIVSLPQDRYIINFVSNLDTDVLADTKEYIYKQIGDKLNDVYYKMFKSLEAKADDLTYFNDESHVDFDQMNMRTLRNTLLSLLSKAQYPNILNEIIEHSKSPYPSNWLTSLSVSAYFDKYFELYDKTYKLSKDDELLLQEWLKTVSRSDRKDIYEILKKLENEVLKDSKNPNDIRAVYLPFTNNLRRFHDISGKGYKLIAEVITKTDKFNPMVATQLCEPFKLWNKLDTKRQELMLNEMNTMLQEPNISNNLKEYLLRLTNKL

[11] = target: T3, RNA-binding protein pos-1 (Caenorhabditis elegans, UniProt G5EF15); assay: disruptors of C. elegans POS-1 RNA interaction – biochemical, fluorescence polarization, dose response (AID 1964);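 further: purified POS-1 fused to maltose binding protein made in E. coli; potency of compounds blocking POS-1 binding to fluorescent RNA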
T3 sequence (G5EF15 whole entry): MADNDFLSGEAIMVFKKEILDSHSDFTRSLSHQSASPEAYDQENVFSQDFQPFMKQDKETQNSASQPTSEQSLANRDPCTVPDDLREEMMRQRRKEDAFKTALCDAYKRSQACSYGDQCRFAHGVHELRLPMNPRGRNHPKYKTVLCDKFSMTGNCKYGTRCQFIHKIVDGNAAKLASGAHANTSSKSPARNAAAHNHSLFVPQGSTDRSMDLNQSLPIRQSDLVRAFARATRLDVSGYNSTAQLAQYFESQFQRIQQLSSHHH

[12] = target: T4, Zinc finger protein mex-5 (Caenorhabditis elegans, UniProt Q9XUB2); assay: potency of MEX-5 RNA-binding blockers – biochemical, C. elegans, fluorescence polarization, dose response (AID 1960)
T4 sequence (Q9XUB2 whole entry): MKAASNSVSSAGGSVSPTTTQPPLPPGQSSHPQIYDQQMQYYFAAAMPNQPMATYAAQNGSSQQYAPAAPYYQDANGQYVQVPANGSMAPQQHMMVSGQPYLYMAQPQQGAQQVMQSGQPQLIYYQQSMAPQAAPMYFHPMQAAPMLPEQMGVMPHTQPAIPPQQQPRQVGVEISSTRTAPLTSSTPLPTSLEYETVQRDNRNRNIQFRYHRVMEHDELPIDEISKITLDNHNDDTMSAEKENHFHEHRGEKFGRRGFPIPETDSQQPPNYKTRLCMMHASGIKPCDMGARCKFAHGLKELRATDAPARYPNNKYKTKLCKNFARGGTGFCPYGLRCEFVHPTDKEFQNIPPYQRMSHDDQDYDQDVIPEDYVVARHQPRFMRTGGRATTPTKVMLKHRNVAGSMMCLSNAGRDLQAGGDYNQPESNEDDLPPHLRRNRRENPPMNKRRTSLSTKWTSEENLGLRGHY

Albumin = Albumin (Bos taurus, UniProt P02769); assay: Counterscreen for inhibitors of T-cell receptor (TCR)-CD3 interaction: Fluorescence-based biochemical high throughput dose response assay to identify inhibitors of T-cell receptor (TCR)-CD3 interaction using a TAMRA-labeled BSA probe.; type: functional
[13] = target: RNA-editing ligase 1, mitochondrial (Trypanosoma brucei brucei, UniProt P86926); assay: inhibition of trypanosome RNA editing ligase – biochemical, fluorescence, Trypanosoma brucei, dose response (AID 1117295); type: functional
RNA-editing ligase 1, mitochondrial, sequence (P86926 whole entry): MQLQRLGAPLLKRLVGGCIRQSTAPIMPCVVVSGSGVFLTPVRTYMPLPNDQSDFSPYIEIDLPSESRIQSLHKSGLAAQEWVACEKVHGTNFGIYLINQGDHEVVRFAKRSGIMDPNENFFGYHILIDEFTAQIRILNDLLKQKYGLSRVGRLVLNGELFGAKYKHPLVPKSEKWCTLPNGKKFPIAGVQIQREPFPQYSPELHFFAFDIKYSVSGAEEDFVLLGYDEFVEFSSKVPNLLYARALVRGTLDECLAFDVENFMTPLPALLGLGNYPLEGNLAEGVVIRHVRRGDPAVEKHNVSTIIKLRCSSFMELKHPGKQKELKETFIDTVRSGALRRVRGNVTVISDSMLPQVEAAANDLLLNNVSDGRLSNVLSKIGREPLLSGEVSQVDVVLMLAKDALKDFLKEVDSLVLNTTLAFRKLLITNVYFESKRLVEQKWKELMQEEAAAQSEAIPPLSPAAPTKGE

Albumin, sequence (P02769 whole entry): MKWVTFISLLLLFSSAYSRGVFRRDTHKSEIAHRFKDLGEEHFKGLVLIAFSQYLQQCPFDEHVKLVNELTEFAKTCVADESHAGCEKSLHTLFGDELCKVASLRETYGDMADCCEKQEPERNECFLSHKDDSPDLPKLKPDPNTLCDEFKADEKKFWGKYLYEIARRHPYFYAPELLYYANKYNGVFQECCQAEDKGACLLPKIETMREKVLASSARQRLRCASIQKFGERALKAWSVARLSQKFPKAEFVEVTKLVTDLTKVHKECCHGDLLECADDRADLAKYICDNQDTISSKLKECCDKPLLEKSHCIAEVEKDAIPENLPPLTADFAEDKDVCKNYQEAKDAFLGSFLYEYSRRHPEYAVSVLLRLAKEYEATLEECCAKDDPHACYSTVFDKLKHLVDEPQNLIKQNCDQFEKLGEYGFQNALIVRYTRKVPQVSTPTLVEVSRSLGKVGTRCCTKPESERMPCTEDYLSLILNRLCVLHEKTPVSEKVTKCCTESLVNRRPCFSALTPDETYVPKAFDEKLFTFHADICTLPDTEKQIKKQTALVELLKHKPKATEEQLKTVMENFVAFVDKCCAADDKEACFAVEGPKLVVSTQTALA

In the case of COc1ccc(-c2cc(-c3ccccc3O)[nH]n2)cc1, the IC50 [1] was > 67.6 µM (inactive), the EC50 [2] was > 67.6 µM (inactive) and the EC50 [3] was > 67.6 µM (inactive). For the same molecule, the EC50 (cells) was > 67.6 µM (inactive).
For CC(C)Cc1nnc(NC(=O)CSc2nc(O)c(-c3ccccc3)c(O)n2)s1, the IC50 [4] was > 109 µM (inactive) and the IC50 [5] was > 83.3 µM (inactive).
For COc1ccc(NC(=O)c2cccc(S(=O)(=O)Nc3ccc(Br)cc3)c2)cn1, the EC50 (HEK293 [6]) was 11.2 µM (active), the IC50 (HEK293 [7]) was 17.3 µM (active) and the IC50 (HEK293 [8]) was > 20 µM (inactive). The IC50 (HEK293 [9]) was 8.65 µM (active) and the CC50 [10] was 22.8 µM (active).
In the case of Cc1n[nH]c(S/C(=C/c2ccc(-c3ccc(C(=O)O)cc3)o2)C(=O)O)n1, the IC50 (Aminopeptidase N) was 18.5 µM (active), the EC50 [11] was 4.1 µM (active) and the EC50 [12] was 1.45 µM (active). The IC50 (Albumin) was > 94.2 µM (inactive) and the IC50 [13] was 77.9 µM (inactive).

— ChEMBL document CHEMBL1201862, “PubChem BioAssay data set” (2004)
